According to patent US9101618B2, “Method for treating and/or preventing neurodegenerative disease by adiponectin receptor agonist” (TOKYO METROPOLITAN INSTITUTE OF MEDICAL SCIENCE, priority 2011, dated 2015):
Where a SMILES comes first, the peptide text is derived from it. The star is where a group is joined. Cbz = O=C(OCc1ccccc1)*

How the values were obtained:
GSK-3β (beta) = test: Addition of p38 MAPK inhibitor and AMPK inhibitor: phospho-GSK-3β western blotting; assay type: cell-based, rat; details: 5 μM inhibitor 10 min, then adiponectin 1 μg/mL 30 min
Description: The aforementioned B103 neuroblastoma cells (α (alpha)S) were inoculated on the 6-well plate and cultured to a state of about 80-90% confluence. After washing with PBS, the aforementioned cells were further cultured for 10 min in an inhibition test medium prepared by adding either 5 μM p38 MAPK inhibitor (SB203580, Promega) or 5 μM AMPK inhibitor (Compound C, Calbiochem) to a serum-free medium. As a control, DMSO was added to a serum-free medium instead of the aforementioned inhibitors. Later, either recombinant human adiponectin (1 μg/mL, trimer, PROSPEC) or PBS was added so as to culture the cells for 30 min. The cells collected were then lysed with the aforementioned cell lysis solution. Supernatants were collected after performing centrifugation at 100,000×g for 30 min, and then subjected to western blotting. Here, western blotting was performed in accordance with the procedures described in example 1.
When performing western blotting to evaluate signal transduction pathways, the anti-phospho-GSK-3β (beta) (Ser9) antibody (D85E12, Cell Signaling Technology), the anti-GSK-3β (beta) antibody (BD Biosciences) and the anti-β (beta)-actin mouse monoclonal antibody (C-15, Sigma-Aldrich Japan Inc.) were used as primary antibodies after being appropriately diluted. Further, the HRP labeled anti-mouse IgG antibody (DAKO) was used as a secondary antibody after being appropriately diluted.

B103 neuroblastoma cells [1] = test: Induction of adiponectin mRNA expression by proteasome inhibition (RT-PCR); assay type: cell-based, rat; details: 10 μM, six hours, regardless of the presence of α-synuclein expression
Description: RT-PCR was performed in accordance with a method of Fujita et al. (Fujita et al., Nat. Commun. 1:110 (2010)). Total RNA was extracted from the frozen brain samples of the α (alpha)S tg mice and the non tg mice by ISOGEN (NIPPON GENE CO., LTD.), followed by performing DNase (DNase 1, Invitrogen, Life Technologies Japan Ltd.) treatment at 37° C. for 30 min. Here, cDNA was synthesized from the total RNA of 2.5 μg, using Superscript III First-Strand Synthesis system (Invitrogen, Life Technologies Japan Ltd.).
A reaction condition of PCR was as follows. That is, PCR was at first performed at 94° C. for 5 min, followed by repeating 35 times a cycle of: 95° C. for 30 sec; 55° C. for 30 sec; and 72° C. for 60 sec. Subsequently, PCR was further performed at 72° C. for 10 min before reaching a stationary state and being left standing at 4° C. PCR products were electrophoresed in 1.2% agarose gel. With regard to an mRNA amount of each gene, concentrations of ethidium bromide-stained bands of the PCR products were quantitated by densitometer (ATTO). mRNA amounts of adiponectin were standardized by mRNA amounts of cyclophilin A.
MG132 (Calbiochem, Merck & Co., Inc.) was used as a proteasome inhibitor. […] Six hours later, the aforementioned cells were collected, and expression of adiponectin mRNA was measured by RT-PCR.

[2] = system: B103 neuroblastoma cells (α (alpha)S); test: Effect of adiponectin siRNA on aggregate state of α-synuclein (western blotting of soluble fractions); assay type: cell-based, rat; details: B103 neuroblastoma cells (αS), siRNA transduced, cultivated 72 hours, western blot
Description: (§1) Rat adiponectin sense strand RNA: 5′-CAAUGACUCUACAUUUACAtt-3′ (SEQ. No. 15), antisense strand RNA: 5′-UGUAAAUGUAGAGUCAUUGtt-3′ (SEQ. No. 16), sense strand RNA of random sequence in control experiment: 5′-UCUUAAUCGCGUAUAAGGCtt-3′ (SEQ. No. 17) and antisense strand RNA: 5′-GCCUUAUACGCGAUUAAGAtt-3′ (SEQ. No. 18) were prepared utilizing Takara siRNA Design Support System (http://www.takara-bio.co.jp/rnai/) (Takara Bio Inc.). The B103 neuroblastoma cells (α (alpha)S) and the B103 neuroblastoma cells (vector) for the control experiment were cultured using a commercially available 6-well plate, and were transfected using Lipofectamine 2000 (Invitrogen, Life Technologies Japan Ltd.) in a state of 30-50% confluence. After performing transfection for six hours, a medium was replaced with a DMEM containing 10% FBS. After performing cultivation for 24 hours, the medium was then replaced with a serum-free DMEM medium so as to avoid effects of adiponectin. After performing cultivation for another three days, transfected B103 neuroblastoma cells were collected so as to be subjected to a detection of an aggregate state of α (alpha)-synuclein and a measurement of proteasomal activity. […]
Extraction of each soluble fraction and quantification of protein in each soluble fraction by western blotting were performed in accordance with procedures similar to those of example 1 through example 3.

B103 neuroblastoma cells [3] = test: Measurement of proteasomal activity in siRNA-transduced cells; assay type: cell-based, rat; details: compared to cells transduced with siRNA of random sequence
Description: as §1, with “FBS.” for “FBS. After performing cultivation for 24 hours, the medium was then replaced with a serum-free DMEM medium so as to avoid effects of adiponectin. After performing cultivation for another three days, transfected B103 neuroblastoma cells were collected so as to be subjected to a detection of an aggregate state of α (alpha)-synuclein and a measurement of proteasomal activity.”
siRNA-transduced B103 neuroblastoma cells were collected with HEPES buffer (50 mM HEPES (pH 7.4), 10 mM EDTA, 10 mM NaCl). […] Protein concentrations were measured, and […] thereof was dissolved in HEPES buffer containing 40 μM of benzyloxycarbonyl-Leu-Leu-Glu-amidomethylcoumarin fluorescent proteasome substrate (Chemicon, Japan Millipore Corporation). Proteasomal activity was calculated as follows. That is, a disintegrated amount of substrate was measured by Berthold Mithras LB940 microplate reader (Berthold Japan co. ltd.), according to time for one hour and at 37° C. […]

[4] = system: B103 neuroblastoma cells (α (alpha)S); test: Thioflavin T staining of adiponectin siRNA-transduced cells; assay type: cell-based, rat; details: α-synuclein expressing neuroblastoma cells with adiponectin expression suppressed
Description: as §1, with “activity. Further, transfection to B103 neuroblastoma cells for thioflavin T staining were carried out on a polylysine-coated cover glass.” for “activity.”

α (alpha)S tg mouse [5] = test: Continuous nasal administration of globular adiponectin: GFAP in surfactant insoluble fraction; assay type: in vivo; details: versus gAPN non-administration group
Description: An α (alpha)S tg mouse and a non tg mouse were distinguished in accordance with the method described in example 2. Globular adiponectin (gAPN) was nasally administered to the α (alpha)S tg mouse and the non tg mouse on days 0, 3, 6, 9, 12, 15, 18 and 21. Further, as a control, PBS was nasally administered to the α (alpha)S tg mouse and the non tg mouse on days 0, 3, 6, 9, 12, 15, 18 and 21. When performing nasal administration, 10 μL of the transmucosal absorption enhancer (PBS containing 5 mg/mL poly-L-arginine hydrochloride (molecular mass>70,000 (Sigma-Aldrich Japan Inc.)) was nasally administered to the mouse. Half an hour later, either 10 μL of globular adiponectin (PBS containing 1 mg/mL gAPN (Prospec)) or 10 μL of PBS was nasally administered to the mouse. On day 22 of nasal administration, the aforementioned mouse was euthanized in accordance with the method described in example 2, followed by collecting brain samples thereof. The hemispheres used for pathological analysis were immersion-fixed using 4% paraformaldehyde, followed by being embedded in paraffin. The other hemispheres used for western blotting were frozen by liquid nitrogen and stored at −80° C. […]

α (alpha)S tg mouse [6] = test: Continuous nasal administration of globular adiponectin: immunohistochemical staining of brain; assay type: in vivo
Description: (§2) An α (alpha)S tg mouse and a non tg mouse were distinguished in accordance with the method described in example 2. Globular adiponectin (gAPN) was nasally administered to the α (alpha)S tg mouse and the non tg mouse on days 0, 3, 6, 9, 12, 15, 18 and 21. Further, as a control, PBS was nasally administered to the α (alpha)S tg mouse and the non tg mouse on days 0, 3, 6, 9, 12, 15, 18 and 21. When performing nasal administration, 10 μL of the transmucosal absorption enhancer (PBS containing 5 mg/mL poly-L-arginine hydrochloride (molecular mass>70,000 (Sigma-Aldrich Japan Inc.)) was nasally administered to the mouse. Half an hour later, either 10 μL of globular adiponectin (PBS containing 1 mg/mL gAPN (Prospec)) or 10 μL of PBS was nasally administered to the mouse. On day 22 of nasal administration, the aforementioned mouse was euthanized in accordance with the method described in example 2, followed by collecting brain samples thereof. The hemispheres used for pathological analysis were immersion-fixed using 4% paraformaldehyde, followed by being embedded in paraffin. The other hemispheres used for western blotting were frozen by liquid nitrogen and stored at −80° C.
Immunohistochemical staining was performed in a standard manner known to those skilled in the art. Briefly, thin sliced sections were prepared at a thickness of 4 μm, using the brain samples embedded in paraffin. After being deparaffinized, the thin sliced sections were placed in a 10 mM sodium citrate buffer solution (pH 6.0) to be subjected to an antigen activation treatment (95° C., 10 min) using microwave (MW). After completing the antigen activation treatment, the thin sliced sections were further treated for 15 min with methanol containing 3% hydrogen peroxide. After washing, the thin sliced sections were then subjected to blocking for 30 min, using 10% goat normal serum (Vector Laboratories, Inc.)/TBS (25 mM Tris-HCl (pH 7.5), 0.15 M NaCl). Later, the thin sliced sections were incubated overnight at 4° C. with a primary antibody (anti-α (alpha)-synuclein antibody or anti-GFAP antibody) diluted with 0.1% bovine serum albumin (BSA)/TBS. After washing, the thin sliced sections were further incubated for 20 min at room temperature with a secondary antibody (biotin labeled anti-mouse IgG antibody (Vector Laboratories, Inc.)) diluted with 0.1% BSA/TBS. When performing staining, there were used ABC kit (Vector Laboratories, Inc.) and 3,3′-diaminobenzidine tetrahydrochloride (DAB). After completing staining, the thin sliced sections were observed using a microscope.

α (alpha)S tg mouse [7] = test: Continuous nasal administration of globular adiponectin: α-synuclein aggregation in various fractions; assay type: in vivo; details: cerebral cortex, gAPN-administered group
Description: as §2
The TBS soluble fraction, the SDS soluble fraction and the formic acid soluble fraction were prepared from the cerebral cortex of the brain sample in accordance with the method described in example 1. […]

[8] = nasal, days 0-21 every 3 days, brain on day 22

Molecule: c1cc(-c2cnn3cc(-c4ccc(OCCN5CCCCC5)cc4)cnc23)ccn1 [Compound C]
- phosphorylated GSK-3β in surfactant soluble fraction (GSK-3β (beta)): detected

Molecule: CC(C)C[C@@H](C=O)NC(=O)[C@H](CC(C)C)NC(=O)[C@H](CC(C)C)NC(=O)OCc1ccccc1 [MG132] (Cbz-Leu-Leu-Leu-aldehyde)
- induction of adiponectin expression (mRNA) (B103 neuroblastoma cells [1]): increased

Molecule: C[S+]([O-])c1ccc(-c2nc(-c3ccncc3)c(-c3ccc(F)cc3)[nH]2)cc1 (stereo not drawn) [SB203580]
- phosphorylated GSK-3β in surfactant soluble fraction (GSK-3β (beta)): not detected

Molecule: APN siRNA: Rat adiponectin siRNA, sense strand SEQ. No. 15, antisense strand SEQ. No. 16 (sense CAAUGACUCUACAUUUACATT; antisense UGUAAAUGUAGAGUCAUUGTT; RNA strands with tt 3' overhangs, overhang chemistry not given here, further chemistry not given here)
- α-synuclein in the formic acid soluble fraction [2]: also detected
- proteasomal activity (B103 neuroblastoma cells [3]): low
- thioflavin T staining (aggregation of protein) [4]: thioflavin T-positive

B1: gAPN: Globular adiponectin (Prospec); adiponectin isoform whose N-terminal collagen-like domain has been cut by protease (protein, listed as Homo sapiens)
chain: PGEGAYVYRSAFSVGLETYVTIPNMPIRFTKIFYNQQNHYDGSTGKFHCNIPGLYYFAYHITVYMKDVKVSLFKKDKAMLFTYDQYQENNVDQASGSVLLHLEVGDQVWLQVYGEGERNGLYADNDNDSTFTGFLLYHDTN
modifications: human adiponectin globular domain
notes: Globular adiponectin (Prospec); adiponectin isoform whose N-terminal collagen-like domain has been cut by protease
- GFAP in surfactant insoluble fraction (α (alpha)S tg mouse [5]): observed less
- adverse effects (α (alpha)S tg mouse [6]; continuous nasal administration): not observed particularly
- growth of astrocyte in cerebral cortex (α (alpha)S tg mouse [6]; [8]): hardly detected
- α-synuclein aggregates in olfactory bulb (α (alpha)S tg mouse [6]; [8]): hardly detected
- α-synuclein aggregates in thalamus (α (alpha)S tg mouse [6]; [8]): hardly detected
- amount of α-synuclein aggregates in SDS soluble fraction (α (alpha)S tg mouse [7]): decreased significantly
